Earlier results in patent publication CN110302150A, “甲硫氨酸维生素b1注射液及其的制备方法” (Chengdu Cacumen Et Folium Clerodendri Mandarinori …, priority 2019, dated 2019).
Where two headings read alike, the source gives them in different places.

Structure (SMILES)	stability (during production and storage)	stability (high temperature and pH>4)
CSCCC(N)C(=O)O (stereo not drawn) [甲硫氨酸]	不稳定,较易降解	–
Cc1ncc(C[n+]2csc(CCO)c2C)c(N)n1 [维生素B1]	不稳定,较易降解	不稳定
